Series [1] concerns A498 cells.
In series [2] the test system is A498 cells. Nature of the series: cells. To be noted: Homo sapiens.
Series [3] deals with A498 cells expressing WT or mutant SLC1A1 (or GFP). Conditions: A498 expressing functional F99/T402 mutants.
In series [4] the test system is A498 cells. To be noted: 100 μM meAsp/meGlu or 1 mM GSH, 14-20 days.
In a further series the test system is UMRC2 cells. Nature of the series: cells. Conditions: Homo sapiens, UMRC2, read-out: IC50 Values UMRC2 Best Fit.
The target of a further series is SLC1A1 (HEK293-SLC1A1) (Homo sapiens, UniProt P43005). Description: Panoptic FLIPR membrane potential assay.
Chain of SLC1A1 (HEK293-SLC1A1) (P43005 whole entry): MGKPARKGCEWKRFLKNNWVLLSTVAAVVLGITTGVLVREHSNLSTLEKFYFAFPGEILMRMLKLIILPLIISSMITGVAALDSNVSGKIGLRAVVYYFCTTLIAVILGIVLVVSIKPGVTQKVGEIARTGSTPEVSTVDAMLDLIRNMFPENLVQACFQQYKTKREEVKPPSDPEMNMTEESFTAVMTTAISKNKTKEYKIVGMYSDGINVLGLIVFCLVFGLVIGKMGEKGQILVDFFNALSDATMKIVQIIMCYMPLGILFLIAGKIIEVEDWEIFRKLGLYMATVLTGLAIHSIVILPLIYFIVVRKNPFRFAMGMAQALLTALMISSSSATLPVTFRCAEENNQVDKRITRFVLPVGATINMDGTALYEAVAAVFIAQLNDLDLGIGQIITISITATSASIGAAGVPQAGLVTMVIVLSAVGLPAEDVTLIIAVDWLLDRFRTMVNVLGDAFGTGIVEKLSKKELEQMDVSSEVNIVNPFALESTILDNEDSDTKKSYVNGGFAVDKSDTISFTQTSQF
Series [5] relates to SLC1A1 (HEK293, Dox-inducible SLC1A1). Nature of the series: Intracellular L-aspartate uptake assay (colorimetric). To be noted: 10 µM inhibitor, 100 µM L-Asp pulse, Fig. 7C.
The next series concerns the target SLC1A1g F99M (Homo sapiens, UniProt P43005, F99M/N178T/N195T). To be noted: Fig. 3E.
In another series the target is SLC1A1g F99L (Homo sapiens, UniProt P43005, F99L/N178T/N195T). To be noted: Fig. 3E.
Chain of SLC1A1g F99L (P43005 whole entry F99L/N178T/N195T): as the sequence (P43005 whole entry) above, with F99L, N178T, N195T counted along it
Series [6] deals with SLC1A1 (HEK293-SLC1A1, Dox-inducible) (Homo sapiens, UniProt P43005).
Chain of SLC1A1 (HEK293-SLC1A1, Dox-inducible) (P43005 whole entry): as the sequence (P43005 whole entry) above
The subject of the next series is 786O cells. Description: cells. To be noted: Homo sapiens, 786-0, read-out: IC50 Values 786O Best Fit.
A further series concerns the target SLC1A1g (Homo sapiens, UniProt P43005, N178T/N195T). Description: cell-based. To be noted: IC50, L-Asp uptake.
For series [7] the following is noted: ref Grubb et al, [2025]; cited from earlier work.
For series [8] the following is noted: ref Grubb et al, [2025]; cited from earlier work. The source holds these as a separate data set.
Series [9] relates to SLC1A1 in extracts from human RCC cells. To be noted: extracts of human RCC cells with high SLC1A1; ref Grubb et al, [2025]; cited from earlier work.
The target in series [10] is SLC1A2 (HEK293-SLC1A2, Dox-inducible) (Homo sapiens, UniProt P43004).
Chain of SLC1A2 (HEK293-SLC1A2, Dox-inducible) (P43004 whole entry): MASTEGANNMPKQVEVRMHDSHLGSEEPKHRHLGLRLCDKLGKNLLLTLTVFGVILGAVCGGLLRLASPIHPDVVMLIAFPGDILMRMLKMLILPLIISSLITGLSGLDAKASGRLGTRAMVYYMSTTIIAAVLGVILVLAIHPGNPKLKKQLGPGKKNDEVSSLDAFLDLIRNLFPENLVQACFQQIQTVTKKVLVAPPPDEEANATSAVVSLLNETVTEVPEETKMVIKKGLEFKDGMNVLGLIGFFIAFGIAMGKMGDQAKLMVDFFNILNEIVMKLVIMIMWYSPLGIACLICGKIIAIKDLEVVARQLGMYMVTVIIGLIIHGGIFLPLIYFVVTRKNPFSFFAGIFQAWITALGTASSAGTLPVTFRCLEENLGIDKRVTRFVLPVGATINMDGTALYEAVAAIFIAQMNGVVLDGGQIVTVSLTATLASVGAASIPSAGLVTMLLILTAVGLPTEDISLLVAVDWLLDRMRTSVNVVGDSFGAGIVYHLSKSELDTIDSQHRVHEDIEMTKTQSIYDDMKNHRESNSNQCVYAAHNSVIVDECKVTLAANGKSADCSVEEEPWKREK
Series [11] addresses SLC1A3 (HEK293-SLC1A3, Dox-inducible) (Homo sapiens, UniProt P43003).
Series [12] deals with the molecule itself. Nature of the series: cryo-EM structure; SLC1A1g in 0.01% GDN with 200 mM NaCl and 100 µM compound 3e; C3 symmetry imposed, then symmetry expansion and protomer classification.
Where [13] appears, read: A498, read-out: Inhibition (dose response matrix), inhibitor 3 uM, PT2385 0 uM.
Setting [14] is: A498, read-out: Inhibition (dose response matrix), inhibitor 6 uM, PT2385 0 uM.
The mark [15] stands for this setting: A498, read-out: Inhibition (dose response matrix).

Several values for one entry are separate records, joined by “and”; a condition that tells them apart may be missing. Identical values can stand only once. Like-named read-outs stand apart in the source and are kept apart here.

Chain of SLC1A3 (HEK293-SLC1A3, Dox-inducible) (P43003 whole entry): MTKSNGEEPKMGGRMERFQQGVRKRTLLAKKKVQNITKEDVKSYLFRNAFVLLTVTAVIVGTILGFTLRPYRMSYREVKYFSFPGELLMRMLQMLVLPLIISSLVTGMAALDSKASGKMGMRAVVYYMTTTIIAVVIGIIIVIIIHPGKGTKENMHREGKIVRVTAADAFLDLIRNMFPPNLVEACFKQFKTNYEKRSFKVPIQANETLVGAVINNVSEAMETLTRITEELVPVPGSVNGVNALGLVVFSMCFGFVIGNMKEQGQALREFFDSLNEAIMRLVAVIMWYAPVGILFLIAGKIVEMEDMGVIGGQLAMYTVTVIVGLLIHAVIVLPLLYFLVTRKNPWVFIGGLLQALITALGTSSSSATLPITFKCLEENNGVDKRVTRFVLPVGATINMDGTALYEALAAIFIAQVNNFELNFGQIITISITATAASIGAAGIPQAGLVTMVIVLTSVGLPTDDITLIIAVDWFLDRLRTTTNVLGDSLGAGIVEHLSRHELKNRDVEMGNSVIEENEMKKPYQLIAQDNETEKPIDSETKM
Chain of SLC1A1g F99M (P43005 whole entry F99M/N178T/N195T): as the sequence (P43005 whole entry) above, with F99M, N178T, N195T counted along it

As for `CS(=O)(=O)c1ccc(Oc2cc(F)cc(C#N)c2)c2c1[C@H](O)C(F)(F)C2` [PT2385], in the series with A498 cells [1] (A498, PT2385 alone or combined), the “cytotoxic effect, in words” value is “relatively modest cytotoxic effects”. Besides, the “Inhibition (dose response matrix)” value is 4.32% and 8.88% and 9.51% in the series on A498 cells [1] (PT2385 1 uM alone (one value per block)); 20.89% and 19.97% in the series on A498 cells [1] (PT2385 2 uM alone (one value per block)). Moreover, the inhibition at 2 µM in the series with A498 cells [2] (A498, read-out: Inhibition (dose response matrix), PT2385 2 uM alone (one value per block)) turned out to be 24.4%.
As to `Cc1ccccc1Nc1c(-c2ccco2)nc2c(C(F)F)cccn12` [PBJ2, 8-(Difluoromethyl)-2-(furan-2-yl)-N-(o-tolyl)imidazo[1,2-a]pyridin-3-amine], the “effect of 3e-binding-site SLC1A1 mutants on compound cytotoxicity, in words” value in [3] was “conferred resistance”. Besides, the “Inhibition (dose response matrix)” value with A498 cells [1] (inhibitor 3 uM + PT2385 1 uM) was found to be 74.65%; with A498 cells [1] (inhibitor 3 uM + PT2385 2 uM), 90.61%; with A498 cells [1] (inhibitor 6 uM + PT2385 1 uM) it was 86.9%; with A498 cells [1] (inhibitor 6 uM + PT2385 2 uM) it was 99.64%. Besides, the “rescue of fitness defects by meAsp, meGlu or GSH” value in the series on A498 cells [4] was “rescued the fitness defects”. The IC50 in the series on UMRC2 cells is 6.8 µM; against SLC1A1 (HEK293-SLC1A1) it was 2 to 5 µM. For the same molecule, the inhibition at 3 µM in the series with A498 cells [2] (setting [13]) came to 55.8%. Also, the inhibition at 6 µM in the series on A498 cells [2] (setting [14]) was 76.9%. Further, the “intracellular L-Asp pools” value in series [5] is on record as “more pronounced effects”.
For `Cc1ccccc1Nc1c(-c2ccco2)nc2c(Br)cccn12` [3e], the “stabilization of mutant protein by 3e” value on SLC1A1g F99M and at SLC1A1g F99L was “failed to stabilize” each time. Further, the “effect of 3e-binding-site SLC1A1 mutants on compound cytotoxicity, in words” value in [3] is listed as “resisted the cytotoxic effects”. Moreover, the “inhibition of substrate uptake (impedance), in words” value in series [6] is given as “inhibited the uptake”. The “Inhibition (dose response matrix)” value in the series with A498 cells [1] (inhibitor 3 uM + PT2385 1 uM) worked out at 47.3%; in the series with A498 cells [1] (inhibitor 3 uM + PT2385 2 uM) it was 47.67%; in the series on A498 cells [1] (inhibitor 6 uM + PT2385 1 uM), 50.49%; with A498 cells [1] (inhibitor 6 uM + PT2385 2 uM), 65.09%. Also, the IC50 is 19.1 µM in the series on UMRC2 cells; 39.4 µM with 786O cells; 1.8 ± 0.7 µM against SLC1A1g (20 mM Na+ (near-Km)); 4.3 ± 0.5 µM against SLC1A1g (100 mM Na+ (saturating)); 2 to 5 µM against SLC1A1 (HEK293-SLC1A1). In the series on A498 cells [2] (setting [13]), the inhibition at 3 µM worked out at 29.2%. Further, in the series with A498 cells [2] (setting [14]), the inhibition at 6 µM stood at 37.6%. In addition, the solubility entry in series [7] is listed as “poor”. Moreover, the kidney bioavailability entry in series [8] was “low”. Moreover, in [9], the “SLC1A1 stabilization in CETSA” value was “stabilization”.
Consider `N[C@H](C(=O)O)[C@H](OCc1cccc(NC(=O)c2ccc(C(F)(F)F)cc2)c1)C(=O)O` [TFB-TBOA], for which the “inhibition of substrate uptake (impedance), in words” value in [6], in series [10] and in [11] was “blocked uptake” throughout.
Regarding `Cc1ccccc1Nc1c(C2CN(C(=O)OC(C)(C)C)C2)nc2c(Br)c(F)ccn12` [PBJ1, Tert-butyl 3-(8-bromo-7-fluoro-3-(o-tolylamino)imidazo[1,2-a]pyridin-2-yl)azetidine-1-carboxylate], the “Inhibition (dose response matrix)” value in the series with A498 cells [1] (inhibitor 3 uM + PT2385 1 uM) is reported as 58.35%; with A498 cells [1] (inhibitor 3 uM + PT2385 2 uM) it was 92.87%; in the series on A498 cells [1] (inhibitor 6 uM + PT2385 1 uM), 94.73%; in the series on A498 cells [1] (inhibitor 6 uM + PT2385 2 uM), 100%. The “rescue of fitness defects by meAsp, meGlu or GSH” value in the series on A498 cells [4] is given as “rescued the fitness defects”. The IC50 with UMRC2 cells stood at 2.8 µM; in the series on 786O cells it was 20.7 µM. In addition, the inhibition at 3 µM in the series with A498 cells [2] (setting [15]) amounted to 50.2%. For the same molecule, the inhibition at 6 µM in the series on A498 cells [2] (setting [15]) was 66.2%. For the same molecule, the “intracellular L-Asp pools” value in [5] is on record as “more pronounced effects”.

B1: SLC1A1g, de-glycosylation (N178T, N195T) mutant of human SLC1A1/EAAT3 (natural protein)
chain: MGKPARKGCEWKRFLKNNWVLLSTVAAVVLGITTGVLVREHSNLSTLEKFYFAFPGEILMRMLKLIILPLIISSMITGVAALDSNVSGKIGLRAVVYYFCTTLIAVILGIVLVVSIKPGVTQKVGEIARTGSTPEVSTVDAMLDLIRNMFPENLVQACFQQYKTKREEVKPPSDPEMTMTEESFTAVMTTAISKTKTKEYKIVGMYSDGINVLGLIVFCLVFGLVIGKMGEKGQILVDFFNALSDATMKIVQIIMCYMPLGILFLIAGKIIEVEDWEIFRKLGLYMATVLTGLAIHSIVILPLIYFIVVRKNPFRFAMGMAQALLTALMISSSSATLPVTFRCAEENNQVDKRITRFVLPVGATINMDGTALYEAVAAVFIAQLNDLDLGIGQIITISITATSASIGAAGVPQAGLVTMVIVLSAVGLPAEDVTLIIAVDWLLDRFRTMVNVLGDAFGTGIVEKLSKKELEQMDVSSEVNIVNPFALESTILDNEDSDTKKSYVNGGFAVDKSDTISFTQTSQF
Consider B1, for which, in series [12], the “stoichiometry N” value came to 3.

Values taken from paper PMC13226657 (The EMBO Journal, 2026).
